Experimental findings from patent US10428044B2, “3-amino-1,5,6,7-tetrahydro-4H-indol-4-ones” (Bayer Pharma Aktiengesellschaft, priority 2014, dated 2019) are described below.

Structures are written as SMILES.

Sequence of (recombinant) catalytic domain of human Bub1 (amino acids 704-1085) (O43683 704-1085): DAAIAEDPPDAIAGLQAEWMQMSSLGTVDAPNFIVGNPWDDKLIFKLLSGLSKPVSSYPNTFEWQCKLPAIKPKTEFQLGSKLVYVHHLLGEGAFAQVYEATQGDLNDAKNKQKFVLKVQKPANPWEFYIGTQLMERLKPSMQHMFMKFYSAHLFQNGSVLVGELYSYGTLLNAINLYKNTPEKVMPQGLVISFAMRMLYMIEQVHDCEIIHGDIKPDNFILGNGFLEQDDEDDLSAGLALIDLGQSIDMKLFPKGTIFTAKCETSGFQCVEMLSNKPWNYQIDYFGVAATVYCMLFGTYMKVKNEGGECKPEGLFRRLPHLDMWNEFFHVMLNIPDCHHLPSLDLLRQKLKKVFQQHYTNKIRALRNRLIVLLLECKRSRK

The assay deals with (recombinant) catalytic domain of human Bub1 (amino acids 704-1085) (Homo sapiens (Human), UniProt O43683). In words: Bub1 kinase assay (TR-FRET). It counts as biochemical. Conditions: ATP 10 μM final, peptide substrate 1 μM final, 60 min at 22° C., read-out: Biological Assay: Bub1 kinase assay median IC50. The method, boiled down:
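Compounds were serially diluted 1:3.4 from 2 mM DMSO stocks and incubated with the enzyme reaction for 60 min at 22° C. The reaction was stopped with EDTA, and biotinylated peptide phosphorylation was read by TR-FRET using Eu anti-mouse IgG, anti-phosphoserine antibody and streptavidin-XL665. IC50 was fitted by 4-parameter logistic to inhibition normalized to no-inhibitor and no-enzyme controls.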
A general note: TR-FRET usually uses a lanthanide donor and a delayed reading to cut background.
A word on the IC50: it is the concentration needed to halve the response being measured. As to `CCC(=O)Nc1cc(-c2[nH]c3c(c2Nc2ccccc2)C(=O)CC(C)(C)C3)ccn1` [Example 35, N-{4-[6,6-dimethyl-4-oxo-3-(phenylamino)-4,5,6,7-tetrahydro-1H-indol-2-yl]pyridin-2-yl}propanamide], the IC50 came to 17.4 nM. In the case of `C[C@@H](C(=O)Nc1cc(-c2[nH]c3c(c2Nc2ccccc2)C(=O)CCC3)ccn1)N(C)C(=O)OC(C)(C)C` [Example 303, tert-butyl methyl[(2S)-1-oxo-1-({4-[4-oxo-3-(phenylamino)-4,5,6,7-tetrahydro-1H-indol-2-yl]pyridin-2-yl}amino)propan-2-yl]carbamate], the IC50 was determined as 1410 nM.

As for `Cn1nccc1-c1cccc(Nc2c(-c3ccncc3)[nH]c3c2C(=O)CC(C)(C)C3)c1` [Example 417, 6,6-dimethyl-3-{[3-(1-methyl-1H-pyrazol-5-yl)phenyl]amino}-2-(pyridin-4-yl)-1,5,6,7-tetrahydro-4H-indol-4-one], the IC50 came to 273 nM.

On to `CC1(C)CC(=O)c2c([nH]c(-c3ccnc(N4CCC4)c3)c2Nc2ccccc2)C1` [Example 360, 2-[2-(azetidin-1-yl)pyridin-4-yl]-6,6-dimethyl-3-(phenylamino)-1,5,6,7-tetrahydro-4H-indol-4-one], for which the IC50 was found to be 12700 nM. For the molecule `COc1ccc(Cn2cc(C(=O)Nc3cc(-c4[nH]c5c(c4Nc4ccccc4)C(=O)CCC5)ccn3)cn2)cc1` [Example 450, 1-(4-methoxybenzyl)-N-{4-[4-oxo-3-(phenylamino)-4,5,6,7-tetrahydro-1H-indol-2-yl]pyridin-2-yl}-1H-pyrazole-4-carboxamide], the half-inhibitory concentration (IC50) amounted to 6.24 nM. In the case of `CC1(C)CC(=O)c2c([nH]c(-c3ccnc4[nH]ncc34)c2Nc2ccccc2)C1` [Example 34, 6,6-dimethyl-3-(phenylamino)-2-(1H-pyrazolo[3,4-b]pyridin-4-yl)-1,5,6,7-tetrahydro-4H-indol-4-one] it was 31 nM; in that of `CN1C(=O)CCC1C(=O)Nc1cc(-c2[nH]c3c(c2Nc2ccccc2)C(=O)CCC3)ccn1` (stereo not drawn) [Example 310, 1-methyl-5-oxo-N-{4-[4-oxo-3-(phenylamino)-4,5,6,7-tetrahydro-1H-indol-2-yl]pyridin-2-yl}-prolinamide], 127 nM. For the molecule `Nc1cc(-c2[nH]c3c(c2Nc2ccccc2)C(=O)CCC3)ccn1` [Example 139, 2-(2-aminopyridin-4-yl)-3-(phenylamino)-1,5,6,7-tetrahydro-4H-indol-4-one], the IC50 was found to be 113 nM. To `CC1(C)CC(=O)c2c([nH]c(-c3cc(Cl)ncc3F)c2Nc2ccccc2)C1` [Example 220, 2-(2-chloro-5-fluoropyridin-4-yl)-6,6-dimethyl-3-(phenylamino)-1,5,6,7-tetrahydro-4H-indol-4-one] belongs 1400 nM. Turning to `CC1(C)CC(=O)c2c([nH]c(-c3ccncc3)c2Nc2ccc3[nH]ccc3c2)C1` [Example 70, 3-(1H-indol-5-ylamino)-6,6-dimethyl-2-(pyridin-4-yl)-1,5,6,7-tetrahydro-4H-indol-4-one], the 50% inhibitory concentration (IC50) was 81.7 nM.

With `CC(C)C1CC(=O)c2c([nH]c(-c3ccnc(NC(=O)C4CC4)c3)c2Nc2ccc(F)c(F)c2)C1` (stereo not drawn) [Example 324, N-{4-[3-[(3,4-difluorophenyl)amino]-4-oxo-6-(propan-2-yl)-4,5,6,7-tetrahydro-1H-indol-2-yl]pyridin-2-yl}cyclopropanecarboxamide], the IC50 was found to be 26.4 nM. To `CC1(C)CC(=O)c2c([nH]c(-c3ccnc(S(N)(=O)=O)c3)c2Nc2ccccc2)C1` [Example 439, 4-[6,6-dimethyl-4-oxo-3-(phenylamino)-4,5,6,7-tetrahydro-1H-indol-2-yl]pyridine-2-sulfonamide] belongs 649 nM.

On to `CC1(C)CC(=O)c2c([nH]c(-c3ccnc(NC4CCC4)c3)c2Nc2ccccc2)C1` [Example 359, 2-[2-(cyclobutylamino)pyridin-4-yl]-6,6-dimethyl-3-(phenylamino)-1,5,6,7-tetrahydro-4H-indol-4-one], for which the IC50 was found to be 208 nM. For `O=C1CCCc2[nH]c(-c3ccnc(NC(=O)[C@H]4C[C@@H]4F)c3)c(Nc3ccccc3)c21` [Example 251, (R,S/S,R)-2-fluoro-N-{4-[4-oxo-3-(phenylamino)-4,5,6,7-tetrahydro-1H-indol-2-yl]pyridin-2-yl}cyclopropanecarboxamide], the IC50 is 10.5 nM.

`O=C1CCCc2[nH]c(-c3ccnc(NC(=O)C4CC4C(F)(F)F)c3)c(Nc3ccccc3)c21` (racemic) [Example 262, N-{4-[4-oxo-3-(phenylamino)-4,5,6,7-tetrahydro-1H-indol-2-yl]pyridin-2-yl}-2-(trifluoromethyl)cyclopropanecarboxamide]: the IC50 came out at 32.6 nM. Consider `CC1(C)CC(=O)c2c([nH]c(-c3ccncc3)c2Nc2cc(-c3ccccc3)ccn2)C1` [Example 422, 6,6-dimethyl-3-[(4-phenylpyridin-2-yl)amino]-2-(pyridin-4-yl)-1,5,6,7-tetrahydro-4H-indol-4-one], for which the IC50 came out at 330 nM. In the case of `CC1(C)CC(=O)c2c([nH]c(-c3ccncc3)c2Nc2ccc3cn[nH]c3c2)C1` [Example 74, 3-(1H-indazol-6-ylamino)-6,6-dimethyl-2-(pyridin-4-yl)-1,5,6,7-tetrahydro-4H-indol-4-one] it was 82.3 nM.

As to `CC1(C)CC(=O)c2c([nH]c(-c3ccncc3)c2Nc2cccc(Br)c2)C1` [Example 12, 3-[(3-bromophenyl)amino]-6,6-dimethyl-2-(pyridin-4-yl)-1,5,6,7-tetrahydro-4H-indol-4-one], the IC50 was 15.4 nM.

Take `CC1(C)CC(=O)c2c([nH]c(-c3ccncc3OCC(F)F)c2Nc2ccccc2)C1` [Example 408, 2-[3-(2,2-difluoroethoxy)pyridin-4-yl]-6,6-dimethyl-3-(phenylamino)-1,5,6,7-tetrahydro-4H-indol-4-one]: the IC50 is 6.42 nM. In the case of `CC(C)C1CC(=O)c2c([nH]c(-c3ccnc(N)c3)c2Nc2ccccc2)C1` (stereo not drawn) [Example 49, 2-(2-aminopyridin-4-yl)-3-(phenylamino)-6-(propan-2-yl)-1,5,6,7-tetrahydro-4H-indol-4-one] it was 13.1 nM; in that of `CC(C)C1CC(=O)c2c([nH]c(-c3ccnc(NC(=O)C4CC4)c3)c2Nc2ccc(F)cc2)C1` (stereo not drawn) [Example 322, N-{4-[3-[(4-fluorophenyl)amino]-4-oxo-6-(propan-2-yl)-4,5,6,7-tetrahydro-1H-indol-2-yl]pyridin-2-yl}cyclopropanecarboxamide], 12.7 nM; in that of `CC1(C)CC(=O)c2c([nH]c(-c3ccncc3)c2Nc2cccc(OC(F)F)c2)C1` [Example 117, 3-{[3-(difluoromethoxy)phenyl]amino}-6,6-dimethyl-2-(pyridin-4-yl)-1,5,6.7-tetrahydro-4H-indol-4-one], 175 nM. To `O=C(Nc1cc(-c2[nH]c3c(c2Nc2ccccc2)C(=O)CCC3)ccn1)c1cccnc1` [Example 279, N-{4-[4-oxo-3-(phenylamino)-4,5,6,7-tetrahydro-1H-indol-2-yl]pyridin-2-yl}pyridine-3-carboxamide] belongs 12.6 nM.

Consider `CC(C)C(=O)Nc1cc(-c2[nH]c3c(c2Nc2ccccc2)C(=O)CC(C)(C)C3)ccn1` [Example 132, N-{4-[6,6-dimethyl-4-oxo-3-(phenylamino)-4,5,6,7-tetrahydro-1H-indol-2-yl]pyridin-2-yl}-2-methylpropanamide], for which the IC50 is 50.2 nM. In the case of `CC(C)(C)NC(=S)Nc1cc(-c2[nH]c3c(c2Nc2ccccc2)C(=O)CCC3)ccn1` [Example 396, 1-tert-butyl-3-{4-[4-oxo-3-(phenylamino)-4,5,6,7-tetrahydro-1H-indol-2-yl]pyridin-2-yl}thiourea], the IC50 stood at 2460 nM. In the case of `CCCOCC(=O)Nc1cc(-c2[nH]c3c(c2Nc2ccccc2)C(=O)CCC3)ccn1` [Example 330, N-{4-[4-oxo-3-(phenylamino)-4,5,6,7-tetrahydro-1H-indol-2-yl]pyridin-2-yl}-2-propoxyacetamide] it was 7.83 nM. To `CC1(C)CC(=O)c2c([nH]c(-c3ccncc3)c2Nc2cc(F)c(F)c(F)c2)C1` [Example 32, 6,6-dimethyl-2-(pyridin-4-yl)-3-[(3,4,5-trifluorophenyl)amino]-1,5,6,7-tetrahydro-4H-indol-4-one] belongs 15.7 nM; to `CCCNC(=S)Nc1cc(-c2[nH]c3c(c2Nc2ccccc2)C(=O)CCC3)ccn1` [Example 399, 1-{4-[4-oxo-3-(phenylamino)-4,5,6,7-tetrahydro-1H-indol-2-yl]pyridin-2-yl}-3-propylthiourea], 292 nM. To `O=C1CCCc2[nH]c(-c3ccnc(N(C(=O)C4CC4)C(=O)C4CC4)c3)c(Nc3ccccc3)c21` [Example 163, N-(cyclopropylcarbonyl)-N-{4-[4-oxo-3-(phenylamino)-4,5,6,7-tetrahydro-1H-indol-2-yl]pyridin-2-yl}cyclopropanecarboxamide] belongs 126 nM; to `CNC(=O)c1cccc(Nc2c(-c3ccncc3)[nH]c3c2C(=O)CC(C)(C)C3)c1` [Example 99, 3-{[6,6-dimethyl-4-oxo-2-(pyridin-4-yl)-4,5,6,7-tetrahydro-1H-indol-3-yl]amino}-N-methylbenzamide], 2210 nM; to `CC(C)C1CC(=O)c2c([nH]c(-c3ccnc(NC(=O)C4CC4)c3)c2Nc2cccc(F)c2)C1` (stereo not drawn) [Example 320, N-{4-[3-[(3-fluorophenyl)amino]-4-oxo-6-(propan-2-yl)-4,5,6,7-tetrahydro-1H-indol-2-yl]pyridin-2-yl}cyclopropanecarboxamide], 8.04 nM. As for `CC1(C)CC(=O)c2c([nH]c(-c3ccncc3)c2Nc2cccc(N)c2)C1` [Example 65, 3-[(3-aminophenyl)amino]-6,6-dimethyl-2-(pyridin-4-yl)-1,5,6,7-tetrahydro-4H-indol-4-one], the IC50 is 525 nM.

On to `O=C1CCCc2[nH]c(-c3ccnc(NC(=O)C4CC4)c3)c(Nc3cccc(F)c3)c21` [Example 47, N-(4-{3-[(3-fluorophenyl)amino]-4-oxo-4,5,6,7-tetrahydro-1H-indol-2-yl}pyridin-2-yl)cyclopropanecarboxamide], for which the IC50 worked out at 13.7 nM.
